Reference: publication PMC11697083 (Nature Communications, 2025)

What was measured:
Assay type in all cases: biochemical
KIF19 = molecular target: T1, KIF19 (Homo sapiens, UniProt Q2TAC6); assay: ADP-Glo ATPase assay
T1 sequence (Q2TAC6 1-998): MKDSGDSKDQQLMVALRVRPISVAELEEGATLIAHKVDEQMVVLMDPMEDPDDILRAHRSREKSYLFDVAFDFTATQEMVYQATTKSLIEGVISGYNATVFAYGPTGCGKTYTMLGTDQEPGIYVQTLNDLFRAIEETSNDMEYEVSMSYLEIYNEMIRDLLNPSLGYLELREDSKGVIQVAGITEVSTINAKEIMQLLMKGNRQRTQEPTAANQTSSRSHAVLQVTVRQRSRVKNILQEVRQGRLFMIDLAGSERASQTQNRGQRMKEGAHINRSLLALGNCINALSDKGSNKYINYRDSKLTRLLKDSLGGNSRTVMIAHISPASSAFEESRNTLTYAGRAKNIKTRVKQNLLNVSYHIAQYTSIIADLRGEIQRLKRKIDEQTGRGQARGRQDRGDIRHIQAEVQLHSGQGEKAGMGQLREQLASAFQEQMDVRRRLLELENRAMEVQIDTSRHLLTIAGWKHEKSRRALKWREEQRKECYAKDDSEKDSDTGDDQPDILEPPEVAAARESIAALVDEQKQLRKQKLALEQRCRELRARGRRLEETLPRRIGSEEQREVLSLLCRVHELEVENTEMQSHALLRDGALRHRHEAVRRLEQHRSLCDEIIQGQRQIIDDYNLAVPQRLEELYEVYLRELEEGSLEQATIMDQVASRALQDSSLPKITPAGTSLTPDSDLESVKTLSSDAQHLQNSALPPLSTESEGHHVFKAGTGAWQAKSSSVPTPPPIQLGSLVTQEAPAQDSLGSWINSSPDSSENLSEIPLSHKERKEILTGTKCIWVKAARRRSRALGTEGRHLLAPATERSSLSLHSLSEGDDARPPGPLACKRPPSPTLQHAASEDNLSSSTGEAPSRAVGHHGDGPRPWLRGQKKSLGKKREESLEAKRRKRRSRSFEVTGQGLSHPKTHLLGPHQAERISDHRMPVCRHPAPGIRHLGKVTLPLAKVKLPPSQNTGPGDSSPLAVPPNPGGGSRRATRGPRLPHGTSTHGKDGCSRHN

Murine KIF18A = molecular target: T2, Murine KIF18A (Mus musculus, UniProt Q91WD7); assay: ADP-Glo ATPase assay
T2 sequence (Q91WD7 1-886): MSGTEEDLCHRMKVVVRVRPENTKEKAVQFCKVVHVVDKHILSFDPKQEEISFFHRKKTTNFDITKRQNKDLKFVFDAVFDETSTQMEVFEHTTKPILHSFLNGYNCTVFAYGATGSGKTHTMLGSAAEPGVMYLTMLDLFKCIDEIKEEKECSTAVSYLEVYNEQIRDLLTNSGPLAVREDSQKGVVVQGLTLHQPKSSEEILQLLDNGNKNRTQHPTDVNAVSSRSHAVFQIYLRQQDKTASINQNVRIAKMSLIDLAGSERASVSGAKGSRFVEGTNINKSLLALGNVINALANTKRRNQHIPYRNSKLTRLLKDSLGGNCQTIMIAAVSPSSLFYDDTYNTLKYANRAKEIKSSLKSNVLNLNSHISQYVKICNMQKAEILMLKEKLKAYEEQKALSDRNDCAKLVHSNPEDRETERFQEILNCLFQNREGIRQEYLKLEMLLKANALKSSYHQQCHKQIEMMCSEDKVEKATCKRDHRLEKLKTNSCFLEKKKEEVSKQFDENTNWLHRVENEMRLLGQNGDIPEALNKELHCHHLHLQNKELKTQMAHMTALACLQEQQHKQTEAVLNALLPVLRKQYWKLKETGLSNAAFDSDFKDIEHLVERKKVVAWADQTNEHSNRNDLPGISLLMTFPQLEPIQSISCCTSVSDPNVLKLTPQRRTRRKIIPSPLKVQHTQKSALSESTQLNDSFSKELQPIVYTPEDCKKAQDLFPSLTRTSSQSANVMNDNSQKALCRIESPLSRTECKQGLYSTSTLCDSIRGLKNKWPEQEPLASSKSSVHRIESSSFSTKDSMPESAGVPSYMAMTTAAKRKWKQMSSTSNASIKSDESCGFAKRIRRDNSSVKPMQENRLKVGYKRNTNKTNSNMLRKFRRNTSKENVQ

KIF18A = molecular target: T3, KIF18A (Homo sapiens, UniProt Q8NI77); assay: ADP-Glo ATPase assay at varied ATP
T3 sequence (Q8NI77 1-374): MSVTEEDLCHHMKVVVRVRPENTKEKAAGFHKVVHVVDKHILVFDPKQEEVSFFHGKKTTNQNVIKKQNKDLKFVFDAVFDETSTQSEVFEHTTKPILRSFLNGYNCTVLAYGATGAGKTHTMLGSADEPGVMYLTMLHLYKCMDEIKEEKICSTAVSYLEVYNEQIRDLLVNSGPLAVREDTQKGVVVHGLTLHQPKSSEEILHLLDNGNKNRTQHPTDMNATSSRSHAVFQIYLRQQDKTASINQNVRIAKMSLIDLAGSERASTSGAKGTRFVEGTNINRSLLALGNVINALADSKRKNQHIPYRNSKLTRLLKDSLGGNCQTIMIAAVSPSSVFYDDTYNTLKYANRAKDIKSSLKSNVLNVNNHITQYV

Row | IC50 (KIF19) | IC50 (Murine KIF18A) | IC50 (KIF18A) | SMILES
1 | 280 nM | 8.8 nM | – | CC(C)(C)NS(=O)(=O)c1cccc(C(=O)N2CC3(CCC4(CC4)CC3)c3cc(NS(C)(=O)=O)ccc32)c1 [compound 11, N-(tert-butyl)-3-(5”-(methylsulfonamido)dispiro[cyclopropane-1,1’-cyclohexane-4’,3”-indoline]-1”-carbonyl)benzenesulfonamide]
2 | – | – | 2200 nM | O=[N+]([O-])c1cc(Cl)ccc1S(=O)(=O)c1ccccc1 [BTB-1]
